2 molecules from patent publication EP1785417A2, “Novel non-psychotropic cannabinoids” (priority 2000, dated 2001) can be followed below.

The subject of assay [1] is rats following Closed Head Injury (CHI). As to the kind of experiment: Rat model of closed head injury (cerebral edema, NSS). Type of assay: in vivo. The settings on record: for Neurological score 1hr / ΔNSS 24hr / Neurological score 24hr / Water content Left / Water content Right: rats, CHI; for Neurological score 1hr: 1 hr after injury; for Neurological score 24hr: 24 hr after injury; for Water content Left / Water content Right: doses of 5-10 mg/kg. The method, then: The cerebroprotective effect of PRS-211 compounds was assessed in a model of head trauma (HT) in rats. Injury was induced in anesthetized rats by a weight-drop device followed by a recovery period of up to 48 hours. This type of trauma produces brain edema (i.e. increase in water content, decrease in specific gravity in the brain), breakdown of the blood brain barrier (BBB) and clinical dysfunction. The clinical status of the rats was evaluated 1, 24 and 48 hours after injury along with measuring the extent of cerebral edema. The neurological deficit, assessed by a set of criteria termed the Neurological Severity Score (NSS), is maximal at 1 hour after the initiation of head trauma. The NSS slowly decreases over time from the initiation of HT, with the gradual spontaneous recovery of the rats.
The model was described in detail by Shapira et al., Crit. Care Med. 16:258-265, 1988. Rats were subjected to head trauma (HT) by a weight-drop device and surviving rats were followed up after one week. During that period they had free access to food and water, and were kept 2-3 rats to a cage. At any predesignated time (15 min, 1, 4, 24, 48 hrs, etc.) rats were sacrificed. Their brains were then rapidly removed and cortical tissue taken to determine water content, ions and the metabolites of interest at any particular metabolic cascade studied. During the recovery period, the clinical status was evaluated by a set of criteria (NSS).
Trauma induced a significant decrease in specific gravity (SG) of brain tissue and increase in water content following head injury. Edema developed since more water accumulates in either the extracellular (vasogenic) or intracellular (cytotoxic) spaces. The methods employed to determine edema are based on linear gradient columns of bromobenzene and kerosene (for SG) and for water content on drying the tissue in a desiccated oven. Tissue pieces (20 mg each) were placed on top of the column and the SG calculated from the equilibrium position in the column, using a standard curve.
The effect of PRS-211 analogs was calculated by the percent edema formation, where 100% was taken as edema in control, non-treated rats. Thus, the reduction in the SG was calculated as follows: SG(sham)-SG(drug)/SG(sham)-SG(cont) × 100 [formula] The increase in water content was calculated as follows: [%H2O(drug-%H2 O(sham)/%H2 O(cont)-%H2 O(sham)] × 100 [formula] All results presented in the table are statistically different (p<0.05) from control, traumatized vehicle treated rats.

The nature of assay [2]: Body weight gain during staircase testing after transient MCAo. Type of assay: in vivo, rats. Conditions: compared to base line. The method, then:
Animals were allowed to recover from the surgery for five days. The mild food deprivation was re-employed during the days following the ischemic insult. They were tested in the staircase box using the above method for 9-12 days. Animals were weighed twice a week during this period.
Animals were kept under mild food deprivation during the staircase testing (except during weekends). Under these conditions, the following results were observed: • Sham and PRS-211,095 10 mg/kg treated rats gained the maximal body weight (15 and 17% respectively compared to base line). […] These differences were not statistically different.

Assay [3] concerns transient middle cerebral artery occlusion in rats. As to the kind of experiment: Transient middle cerebral artery occlusion (MCAo), infarct size evaluation. The format is in vivo. Conditions: for Mortality rate: 5 mg/kg IV at 2+0 hours; for reduction of infarct size: IV, one week after the ischemic insult. In short, it runs like this: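 Male rats (320-380 g) had filament MCAo for 2 h, then reperfusion; compounds at 5 mg/kg IV in cremophor-ethanol diluted in saline were given just before thread removal or 1 h after it. Success of occlusion was judged by a drop of more than 50% in Laser Doppler flow. After one week, formaldehyde-perfused brains were taken for histological infarct volume.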

Regarding `CCCCCCC(C)(C)c1cc(O)c2c(c1)OC(C)(C)[C@H]1CC=C(Cn3ccnc3)C[C@H]21` (single isomer, unassigned) [211,095-000], the “edema formation and BBB disruption” value in assay [1] (given 30 min before, immediately after, or 1 and 2 hours after HT) was “significantly reduces edema formation and BBB disruption”. For the same molecule, in assay [1] (one dose of 5 mg/kg given 1 hour after the impact, measured 24 hours after HT), the “edema and clinical outcome” value is “effectively reduced edema and improved the clinical outcome”. In addition, in assay [1], the “Neurological score 1hr” value is recorded as 11.9 ±0.6, the “ΔNSS 24hr” value is reported as 6.5 ±0.45, the “Neurological score 24hr” value stood at 5.4 ±0.5 and the “Water content Left” value is on record as 82.89 ±0.48. Also, the “Water content Right” value in assay [1] turned out to be 79.75 ±0.20. The body weight gain entry in assay [2] (0.5 mg/kg) is listed as “did not gain weight”. Moreover, in assay [2] (2.5 mg/kg), the body weight gain entry was “did not gain weight”. In addition, the body weight gain in assay [2] (5 mg/kg) was 4%. Also, in assay [2] (10 mg/kg), the body weight gain amounted to 17%. In assay [3], the Mortality rate entry is “No mortality” and the “reduction of infarct size” value was 60%. Moreover, the “Behavioral / Neurological outcome” value in assay [3] (compared to the other treatment groups) is “fewer neurological deficits and recovered faster”.

Take `CCCCCCC(C)(C)c1cc(O)c2c(c1)OC(C)(C)[C@H]1CC=C(CO)C[C@H]21` [211,007-000 HU-211, 1,1 dimethyl heptyl-(3 S,4S)-7-hydroxy-Δ^6-tetrahydrocannabinol, reference compound]: in assay [1], the “Neurological score 1hr” value amounted to 11.7 ±0.7, the “ΔNSS 24hr” value is on record as 5.5 ±0.42, the “Neurological score 24hr” value stood at 6.3 ±0.6 and the “Water content Left” value is 83.09 ±0.51. In addition, the “Water content Right” value in assay [1] was determined as 79.37 ±0.30. The molecule also displayed a body weight gain in assay [2] (5 mg/kg) of 7%. Moreover, in assay [3], the Mortality rate was determined as 9% and the “reduction of infarct size” value stood at 48%.
